Data taken from patent US20260091011A1, “HYDROALCOHOLIC SINGLE PHASE GEL COMPOSITIONS FOR TOPICAL DELIVERY OF DICLOFENAC” (HALEON CH SARL, priority 2022, published 2026).

Test: Cumulative skin permeation study in a 3 ml permeation cell (Example 2)
Assay type: in vitro ADME, human
Details: 2% w/w diclofenac sodium hydroalcoholic gels
Procedure: In a cumulative skin permeation study in a 3 ml permeation cell, cumulative permeation through a skin sample from a human donor was studied. Five different compositions were tested in six replicates. Cumulative permeation was measured at 4 hours (hrs) and at 24 hrs after application of a dose. However, cumulative permeation at 4 hrs was below the measurement threshold in this experiment and thus is not reported for Example 2. All formulations were applied in a dose of 6 microlitres onto skin sample of a defined surface area. The following formulations were studied: […]

Substance | effect of non-ionic emulsifier on cumulative permeation of diclofenac at 24 hrs
macrogol cetostearyl ether 20 [Kolliphor CS 20] | more pronounced
Polysorbate 20 [Kolliphor PS 20] | permeation retarding effect
